This assay deals with OCI-Ly10 cells. Kind of assay: Proliferation-Inhibitory Test Against Diffuse Large-Cell B-Cell Lymphoma OCI-Ly10 Strain. It counts as cell-based. The settings on record: Homo sapiens, 96 hours, alamarBlue. Here is the method:
OCI-Ly10 cells were cultured in IMDM medium (Iscove's Modified Dulbecco's Medium, Manufactured by Thermo Fisher Scientific Inc., hereinafter “medium”) containing 20% Fetal bovine serum and 1% penicillin-streptomycin (Nacalai Tesque, Inc.) in a 5% CO2 incubator. OCI-Ly10 cells were seeded to 96-well plate (20000 cells/well), compounds diluted with medium were added with final concentrations of 0.9 nM to 30000 nM (Final DMSO concentration, 0.3%), incubated for 96 hours and alamorBlue reagent (Thermo Fisher Scientific Inc.) was added.
On the technique in general: Resazurin is reduced to fluorescent resorufin, in cell work by metabolically active cells.

The structures appear in SMILES notation.

Broadly, the IC50 is the concentration that inhibits the measured activity by half. In turn, `Nc1nc(-c2cccc(-n3ccc4cc(C5CC5)cc(F)c4c3=O)c2CO)c2cc(-c3cncc(F)c3)[nH]c2n1` [Example 46, 2-{3-[2-amino-6-(5-fluoropyridin-3-yl)-7H-pyrrolo[2,3-d]pyrimidin-4-yl]-2-(hydroxymethyl)phenyl}-6-cyclopropyl-8-fluoroisoquinolin-1(2H)-one] gave an IC50 of 564 nM.
For `Nc1nc(-c2cccc(-n3ccc4cc(C5CC5)cc(F)c4c3=O)c2CO)c2cc(-c3ccc(CN4CCN(CC(F)(F)F)CC4)cc3)[nH]c2n1` [Example 79, 2-{3-[2-amino-6-(4-{[4-(2,2,2-trifluoroethyl)piperazin-1-yl]methyl}phenyl)-7H-pyrrolo[2,3-d]pyrimidin-4-yl]-2-(hydroxymethyl)phenyl}-6-cyclopropyl-8-fluoroisoquinolin-1(2H)-one] the value was 30 nM; for `Nc1nc(-c2cccc(-n3ccc4cc(C5CC5)cc(F)c4c3=O)c2CO)c2cc(-c3cnn(-c4ccccc4)c3)[nH]c2n1` [Example 64, 2-{3-[2-amino-6-(1-phenyl-1H-pyrazol-4-yl)-7H-pyrrolo[2,3-d]pyrimidin-4-yl]-2-(hydroxymethyl)phenyl}-6-cyclopropyl-8-fluoroisoquinolin-1(2H)-one], 642 nM; for `CC(C)(C)OC(=O)N1CC=C(c2cc3c(-c4cccc(-n5ccc6cc(C7CC7)cc(F)c6c5=O)c4CO)nc(N)nc3[nH]2)CC1` [Example 68, tert-butyl 4-{2-amino-4-[3-(6-cyclopropyl-8-fluoro-1-oxoisoquinolin-2(1H)-yl)-2-(hydroxymethyl)phenyl]-7H-pyrrolo[2,3-d]pyrimidin-6-yl}-5,6-dihydropyridine-1(2H)-carboxylate], 115 nM.
`Nc1nc(-c2cccc(-n3ccc4cc(C5CC5)cc(F)c4c3=O)c2CO)c2cc(C3=CCN(CC4CC4)CC3)[nH]c2n1` [Example 92, 2-(3-{2-amino-6-[1-(cyclopropylmethyl)-1,2,3,6-tetrahydropyridin-4-yl]-7H-pyrrolo[2,3-d]pyrimidin-4-yl}-2-(hydroxymethyl)phenyl)-6-cyclopropyl-8-fluoroisoquinolin-1(2H)-one] displayed an IC50 of 61 nM.
As for `COc1ccc(-c2cc3c(-c4cccc(-n5ccc6cc(C7CC7)cc(F)c6c5=O)c4CO)nc(N)nc3[nH]2)cn1` [Example 65, 2-{3-[2-amino-6-(6-methoxypyridin-3-yl)-7H-pyrrolo[2,3-d]pyrimidin-4-yl]-2-(hydroxymethyl)phenyl}-6-cyclopropyl-8-fluoroisoquinolin-1(2H)-one], the figure is 276 nM.
As for `CC1CN(Cc2ccc(-c3cc4c(-c5cccc(-n6ccc7cc(C8CC8)cc(F)c7c6=O)c5CO)nc(N)nc4[nH]3)cc2)CC(C)O1` (stereo not drawn) [Example 76, 2-[3-(2-amino-6-{4-[(2,6-dimethylmorpholino)methyl]phenyl}-7H-pyrrolo[2,3-d]pyrimidin-4-yl)-2-(hydroxymethyl)phenyl]-6-cyclopropyl-8-fluoroisoquinolin-1(2H)-one], the figure is 47 nM; as for `CNc1ccc(-c2cc3c(-c4cccc(-n5ccc6cc(C7CC7)cc(F)c6c5=O)c4CO)nc(N)nc3[nH]2)cn1` [Example 47, 2-(3-{2-amino-6-[6-(methylamino)pyridin-3-yl]-7H-pyrrolo[2,3-d]pyrimidin-4-yl}-2-(hydroxymethyl)phenyl)-6-cyclopropyl-8-fluoroisoquinolin-1(2H)-one], 204 nM; as for `CN1CCN(Cc2ccc(-c3cc4c(-c5cccc(-n6ccc7cc(C8CC8)cc(F)c7c6=O)c5CO)nc(N)nc4[nH]3)cc2)CC1=O` [Example 55, 2-[3-(2-amino-6-{4-[(4-methyl-3-oxopiperazin-1-yl)methyl]phenyl}-7H-pyrrolo[2,3-d]pyrimidin-4-yl)-2-(hydroxymethyl)phenyl]-6-cyclopropyl-8-fluoroisoquinolin-1(2H)-one], 13 nM.

The values are drawn from US10793575B2, “Oxoisoquinoline derivatives” (CARNA BIOSCIENCES, INC., priority 2016, dated 2020).
